Source: US7563758B2, “Enzymatic production of peracids using Lactobacilli having perhydrolysis activity” (E. I. du Pont de Nemours and Company, priority 2005, dated 2009)

Tests used:
Assay in all cases: Minimum biocidal concentration (MBC) of peracetic acid, XTT microtiter assay
Format in all cases: cell-based
Details in all cases: 5-log kill; exposure at room temperature (e.g., 10 minutes)
[1] = tested on: Staphylococcus aureus ATCC 6538
Text: (§1) The method described by J. Gabrielson, et al. (J. Microbiol. Methods 50: 63-73 (2002)) can be employed for determination of the Minimum Biocidal Concentration (MBC) of peracids, or of hydrogen peroxide and enzyme substrates. The assay method is based on XTT reduction inhibition, where XTT ((2,3-bis[2-methoxy-4-nitro-5-sulfophenyl]-5-[(phenylamino)carbonyl]-2H-tetrazolium, inner salt, monosodium salt) is a redox dye that indicates microbial respiratory activity by a change in optical density (OD) measured at 490 nm or 450 nm. However, there are a variety of other methods available for testing the activity of disinfectants and antiseptics including, but not limited to viable plate counts, direct microscopic counts, dry weight, turbidity measurements, absorbance, and bioluminescence (see, for example Brock, Semour S., Disinfection, Sterilization, and Preservation, 5th edition, Lippincott Williams & Wilkins, Philadelphia, Pa., USA; 2001).
(§2) The minimum biocidal concentration (MBC) of peracid required to produce a 5-log kill of Staphylococcus aureus ATCC 6538, Salmonella cholerasuis ATCC 10708 and Pseudomonas aeruginosa ATCC 15442 was determined according to the following procedure. Cultures were grown in 5 mL LB broth (Media Tech, Inc.) for 17-24 hours at 35° C. with shaking and subsequently plated on Trypticase Soy Agar (VWR). At least 3 consecutive daily transfers were made. Plates were incubated for 20-24 hours at 35° C.±2° C. Each culture was removed from the agar surface by flooding with 5-7 mL of phosphate buffer, pH 7.2. (e.g., Butterflies or equivalent) and transferred into a sterile flask. The OD600 of the culture suspension was measured and the cell suspension was diluted in phosphate buffer to a final cell density between 1-2 E+05 and 1-2 E+06 CFU/mL, where the final cell concentration was adjusted to produce the concentration needed for the number of logs kill required. The peracetic acid solution to be tested was diluted by doubling dilutions from 600 ppm to 0.5 ppm in sterile water. Test inoculum (100 μL) was added each well of a 96-well microtiter plate, columns 1-11; column 12 was employed for a blank check using sterile dd water in place of inoculum. Decreasing concentrations of peracid solution (100 μL) was added across columns 1-10, and the plates held at room temperature for the required exposure time (e.g., 10 minutes). A Neutralization/detection plate was prepared with Letheen Broth (Difco #268110) and XTT (4 mM stock in water, 2,3-bis-[2-methoxy-4-nitro-5-sulfophenyl]-2H-tetrazolium-5-carboxanilide inner salt); 190 μL was added to each well of a fresh 96 well microtiter plate. From each well of the exposure plate, a 10 μL aliquot was transferred to the neutralization/detection plate. An OD450 reading was measured, and the plate incubated at 35° C.±2° C. for 24 hours. A second OD450 was measured, where orange color was indicative of cell growth. A suspension to test organism(s) was prepared equal to 1-2 E+04 CFU/mL. Add A 10 μL aliquot of this suspension was added to each negative well except column 12, and the plates incubated at 35° C.±2° C. for 24 hours. […] The MBC of peracetic acid generated enzymatically from triacetin by Lactobacillus plantarum ATCC BAA793 (Table 11) indicated equivalency with commercial peracetic acid.

[2] = tested on: Pseudomonas aeruginosa ATCC 15442
Text: as §1, §2

[3] = tested on: Salmonella cholerasuis ATCC 10708
Text: as §1, §2

Compound | MBC in ppm PAA, Staphylococcus aureus ATCC 6538 [1] | MBC in ppm PAA, Pseudomonas aeruginosa ATCC 15442 [2] | MBC in ppm PAA, Salmonella cholerasuis ATCC 10708 [3]
CC(=O)OO [L. plantarum ATCC BAA793, peracetic acid] | 1.4 ppm PAA | 1.4 ppm PAA | 1.4 ppm PAA
CC(=O)OO [Sigma Lot # 07726EC, peracetic acid, reference compound] | 1.8-2.4 ppm PAA | 2.4-14 ppm PAA | –
